Test results published in US9340577B2, “HLA binding motifs and peptides and their uses” (priority 1992, dated 2016).
pIC50: −log10 of the molar value. No end group written: not given here.

Assays:
Test in all cases: biochemical
Format in all cases: binding
A*2902 = A*2902 (Homo sapiens, UniProt P04439, A270S/D101N/D185E/E176V/E277Q/E87Q/F33T/G231S/H175R/I121M/I218V/I322F/K168Q/L300P/L318F/M331R/P208A/P217A/Q86L/T323A/T345S/V100A/V358M)
A*3002 = A*3002 (Homo sapiens, UniProt P04439, D101N/D140H/D185E/E176R/F33S/G80R/H175R/K168Q/Q94H/R138E/R41S/V100E)
HLA-A1 (A*0101) = HLA-A1 (A*0101) (Homo sapiens, UniProt P04439, A114D/A174V/A182V/D101N/D185E/E176A/E190D/L180R/Q94H/R68K/S129P/T187R/V100A/V91M/W191G)
A*2601 = A*2601 (Homo sapiens, UniProt P04439, A114D/A173T/A270S/D101N/D185E/E277Q/E87N/F33Y/G231S/I121R/I218V/K168Q/L180W/L300P/L318F/P208A/P217A/Q86R/Q94H/R138Q/S129P/T187R/T323A/T345S/V100A/V358M)

Chain of A*3002 (P04439 whole entry, looked up, the tested form may be a part, stated change not applied): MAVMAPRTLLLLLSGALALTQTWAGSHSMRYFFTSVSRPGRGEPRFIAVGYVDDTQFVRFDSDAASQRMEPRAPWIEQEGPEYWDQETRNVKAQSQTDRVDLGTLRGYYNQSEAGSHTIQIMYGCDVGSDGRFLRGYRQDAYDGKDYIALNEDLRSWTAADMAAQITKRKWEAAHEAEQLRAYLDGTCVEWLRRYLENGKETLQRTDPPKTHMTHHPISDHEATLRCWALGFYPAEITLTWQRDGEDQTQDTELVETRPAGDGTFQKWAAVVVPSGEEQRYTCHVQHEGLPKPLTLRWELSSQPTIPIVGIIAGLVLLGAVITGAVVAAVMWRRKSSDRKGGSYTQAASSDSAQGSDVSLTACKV

Molecule | pIC50 (A*2902) | pIC50 (A*3002) | pIC50 (HLA-A1 (A*0101)) | pIC50 (A*2601)
CC[C@H](C)[C@H](N)C(=O)N[C@H](C(=O)N[C@@H](CCC(=O)O)C(=O)N[C@@H](CCCCN)C(=O)N[C@@H](CC(N)=O)C(=O)N[C@@H](CO)C(=O)NCC(=O)N[C@@H](CC(C)C)C(=O)N[C@@H](Cc1ccc(O)cc1)C(=O)O)[C@@H](C)O [Peptide 1553.04] | < 4.70 | 7.17 | 7.24 | 6.29
CC[C@H](C)[C@H](N)C(=O)N[C@@H](CO)C(=O)N[C@@H](CCC(=O)O)C(=O)N[C@@H](Cc1ccc(O)cc1)C(=O)N[C@@H](CCCNC(=N)N)C(=O)N[C@@H](Cc1c[nH]cn1)C(=O)N[C@@H](Cc1ccc(O)cc1)C(=O)N[C@@H](CS)C(=O)N[C@@H](Cc1ccc(O)cc1)C(=O)O [Peptide 1571.27] | 6.58 | 7.21 | 7.42 | < 4.70
ASDVTACPYNY [Peptide 9012.0176] | 5.61 | 6.69 | 7.74 | 5.23
ATDVSHRGLY [Peptide 1593.10] | 5.79 | 7.82 | 7.59 | 7.74
CTSASNPSPQY [Peptide 9012.0170] | < 4.70 | 6.32 | 6.27 | 6.26
DSDQILVGY [Peptide 1593.12] | < 4.70 | < 4.70 | – | < 4.70
DSVSSTCRY [Peptide 86.0156] | < 4.70 | 6.00 | 5.51 | 7.92
ETDLDMLRHLY [Peptide 9012.0172] | 5.82 | 8.00 | 8.02 | 8.36
EVDYVGLYY [Peptide 1580.33] | 8.35 | < 4.70 | 8.44 | 6.79
FTSMPNPEGRY [Peptide 9012.0174] | 6.77 | 6.98 | 8.00 | 8.55
HTASNPPAQY [Peptide 9012.0142] | 7.68 | 8.74 | – | 9.27
ISDSYTYY [Peptide 9012.0102] | 5.70 | 5.04 | – | 5.07
ITDNNNGTY [Peptide 9012.0120] | 4.81 | 7.68 | 7.49 | 6.34
ITSPPDSSY [Peptide 9012.0118] | 4.78 | 8.06 | 5.77 | 6.34
KTDILTVTY [Peptide 1593.11] | < 4.70 | 6.04 | – | < 4.70
KTGILTVTY [Peptide 86.0146] | 5.47 | 7.70 | 6.07 | < 4.70
LQDKIIDHY [Peptide 1580.21] | < 4.70 | 5.56 | – | < 4.70
LQDKILDHY [Peptide 1580.27] | < 4.70 | 6.03 | 7.18 | 5.13
LSDALEIPY [Peptide 1549.41] | 5.80 | 5.06 | 7.92 | 6.20
LSDTRNDVGPY [Peptide 9012.0164] | 5.01 | 6.82 | 7.85 | 6.23
LTDKIIDHY [Peptide 1593.09] | < 4.70 | 5.17 | – | < 4.70
LTSALEIPY [Peptide 1549.40] | – | 6.79 | 7.24 | 6.45
NTGILTVTY [Peptide 86.0152] | 5.85 | 5.06 | – | 5.50
QAEPDTSNY [Peptide 1549.03] | < 4.70 | 5.00 | 6.50 | < 4.70
TTSPSYTY [Peptide 9012.0100] | 6.67 | 6.49 | – | 5.46
VQDKILDIY [Peptide 1580.32] | < 4.70 | 5.42 | – | < 4.70
VTQGNLELTY [Peptide 9012.0147] | – | 7.64 | 7.05 | 5.17
